Results published in US6376497B1, “Antifungal azole derivatives having a fluorinated vinyl group and process for preparing same” (Korea Research Institute of Chemical Technology, priority 1999, dated 2002).

Experiments:
Assay in all cases: In vitro antifungal activity, microbroth dilution MIC
Type in all cases: cell-based
Settings in all cases: RPMI-1640, 35° C., 4 to 48 hours, no growth observed
[1] = test system: Trichophyton mentagrophytes B. 32663
Procedure, shortened: (§1)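 Broth microdilution adapted from NCCLS M27, in RPMI-1640 with 0.165 M MOPS, pH 7.0. Yeast or mould inoculum at 2×10^3 CFU/ml was mixed 1:1 with DMSO-derived compound solutions (200 to 0.10 μg/ml before mixing) and incubated at 35 °C for 4 to 48 h. MIC was the concentration showing no growth.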

[2] = test system: Aspergillus niger A. 16404
Procedure, shortened: as §1

[3] = test system: Cryptococcus neoformans IFM. 40092
Procedure, shortened: as §1

[4] = test system: Trichophyton mentagrophytes A. 9129
Procedure, shortened: as §1

[5] = test system: Candida albicans IFO. 1385
Procedure, shortened: as §1

Candida krusei K. 11655 = test system: Candida krusei K. 11655
Procedure, shortened: as §1

[6] = test system: Torulopsis glabrata B. 16205
Procedure, shortened: as §1

[7] = test system: Cryptococcus neoformans A. 34144
Procedure, shortened: as §1

[8] = test system: Aspergillus furnigatus B. 19119
Procedure, shortened: as §1

[9] = test system: Candida tropicalis A. 13803
Procedure, shortened: as §1

[10] = test system: Candida albicans A. 10231
Procedure, shortened: as §1

[11] = test system: Candida parapsitosis A. 7330
Procedure, shortened: as §1

[12] = test system: Candida pseudotropicalis K. 11658
Procedure, shortened: as §1

Candida albicans C1-2 = test system: Candida albicans C1-2
Procedure, shortened: as §1

[13] = test system: Cryptococcus neoformans B. 42419
Procedure, shortened: as §1

Structure (SMILES)	Minimal inhibitory concentration(MIC), T. mentagrophytes B. 32663 [1] [µg/mL]	Minimal inhibitory concentration(MIC), A. niger A. 16404 [2] [µg/mL]	Minimal inhibitory concentration(MIC), Cry. neoformans IFM. 40092 [3] [µg/mL]	Minimal inhibitory concentration(MIC), T. mentagrophytes A. 9129 [4] [µg/mL]	Minimal inhibitory concentration(MIC), C. albicans IFO. 1385 [5] [µg/mL]	Minimal inhibitory concentration(MIC), C. krusei K. 11655 (Candida krusei K. 11655) [µg/mL]	Minimal inhibitory concentration(MIC), T. glabrata B. 16205 [6] [µg/mL]	Minimal inhibitory concentration(MIC), Cry. neoformans A. 34144 [7] [µg/mL]	Minimal inhibitory concentration(MIC), A furnigatus B. 19119 [8] [µg/mL]	Minimal inhibitory concentration(MIC), C. tropicalis A. 13803 [9] [µg/mL]	Minimal inhibitory concentration(MIC), C. albicans A. 10231 [10] [µg/mL]	Minimal inhibitory concentration(MIC), C. parapsitosis A. 7330 [11] [µg/mL]	Minimal inhibitory concentration(MIC), C. pseudotropicalis K. 11658 [12] [µg/mL]	Minimal inhibitory concentration(MIC), C. albicans C1-2 (Candida albicans C1-2) [µg/mL]	Minimal inhibitory concentration(MIC), Cry. neoformans B. 42419 [13] [µg/mL]
CC(C)(C)c1ccc(C(=C(F)Oc2ccc(OCC3COC(Cn4ccnc4)(c4ccc(F)cc4F)O3)cc2)C(F)(F)F)cc1 (mixture of isomers) [Ex. 109]	3.13	>100	0.39	6.25	3.13	>100	100	1.56	>100	>100	100	>100	>100	50.0	3.13
Cc1ccc(C(=C(F)Oc2ccc(OCC3COC(Cn4ccnc4)(c4ccc(F)cc4F)O3)cc2)C(F)(F)F)cc1C (mixture of isomers) [Ex. 110]	3.13	>100	0.39	6.25	3.13	>100	100	1.56	>100	>100	100	>100	>100	50.0	3.13
FC(Oc1ccc(OCC2COC(Cn3ccnc3)(c3ccc(F)cc3F)O2)cc1)=C(c1cccc(C(F)(F)F)c1)C(F)(F)F (mixture of isomers) [Ex. 111]	3.13	>100	0.39	6.25	3.13	>100	100	1.56	>100	>100	100	100	100	50.0	3.13
FC(Oc1ccc(OCC2COC(Cn3ccnc3)(c3ccc(F)cc3F)O2)cc1)=C(c1ccc2c(c1)OCO2)C(F)(F)F (mixture of isomers) [Ex. 112]	3.13	>100	0.39	6.25	1.56	>100	50.0	1.56	>100	100	25.0	>100	25.0	12.5	1.56
